The values that follow come from patent publication US20140288074A1, “FUNGICIDAL PYRAZOLES” (E I DU PONT DE NEMOURS AND COMPANY, priority 2013, published 2014).

Holding throughout (format): in vivo
One assay relates to Botrytis cinerea. As to the kind of experiment: Test A: preventive spray on tomato seedlings, tomato Botrytis, visual disease rating. Conditions: 200 ppm test suspension, Botrytis cinerea inoculated the day after spraying; for pest or weed control at 200 ppm: 120 h. On the procedure:
General protocol for preparing test suspensions for Tests A-G: the test compounds were first dissolved in acetone in an amount equal to 3% of the final volume and then suspended at the desired concentration (in ppm) in acetone and purified water (50/50 mix by volume) containing 250 ppm of the surfactant Trem® 014 (polyhydric alcohol esters). The resulting test suspensions were then used in Tests A-G. Each test was conducted in triplicate, and the results were averaged. Spraying a 200 ppm test suspension to the point of run-off on the test plants was the equivalent of a rate of 800 g/ha. Unless otherwise indicated, the rating values indicate a 200 ppm test suspension was used. (An asterisk “*” next to the rating value indicates a 40 ppm test suspension was used.) The test suspension was sprayed to the point of run-off on tomato seedlings. The following day the seedlings were inoculated with a spore suspension of Botrytis cinerea (the causal agent of tomato Botrytis) and incubated in saturated atmosphere at 20° C. for 48 h, and then moved to a growth chamber at 24° C. for 3 additional days, after which time visual disease ratings were made. Results for Tests A-G are given in Table A. In the Table, a rating of 100 indicates 100% disease control and a rating of 0 indicates no disease control (relative to the controls). A hyphen (-) indicates no test results.

The next assay deals with Septoria nodorum. As to the kind of experiment: Test C: preventive spray on wheat seedlings, Septoria glume blotch, visual disease rating. The settings on record: 200 ppm test suspension, Septoria nodorum inoculated the day after spraying; for pest or weed control at 200 ppm: Parastagonospora nodorum, 264 h. On the procedure:
General protocol for preparing test suspensions for Tests A-G: the test compounds were first dissolved in acetone in an amount equal to 3% of the final volume and then suspended at the desired concentration (in ppm) in acetone and purified water (50/50 mix by volume) containing 250 ppm of the surfactant Trem® 014 (polyhydric alcohol esters). The resulting test suspensions were then used in Tests A-G. Each test was conducted in triplicate, and the results were averaged. Spraying a 200 ppm test suspension to the point of run-off on the test plants was the equivalent of a rate of 800 g/ha. Unless otherwise indicated, the rating values indicate a 200 ppm test suspension was used. (An asterisk “*” next to the rating value indicates a 40 ppm test suspension was used.) The test suspension was sprayed to the point of run-off on wheat seedlings. The following day the seedlings were inoculated with a spore suspension of Septoria nodorum (the causal agent of Septoria glume blotch) and incubated in a saturated atmosphere at 24° C. for 48 h, and then moved to a growth chamber at 20° C. for 9 days, after which time visual disease ratings were made. Results for Tests A-G are given in Table A. In the Table, a rating of 100 indicates 100% disease control and a rating of 0 indicates no disease control (relative to the controls). A hyphen (-) indicates no test results.

A further assay relates to Septoria tritici. As to the kind of experiment: Test D: preventive spray on wheat seedlings, wheat leaf blotch, visual disease rating. The settings on record: 200 ppm test suspension, Septoria tritici inoculated the day after spraying; for pest or weed control at 200 ppm: Zymoseptoria tritici, 504 h. How it is done: General protocol for preparing test suspensions for Tests A-G: the test compounds were first dissolved in acetone in an amount equal to 3% of the final volume and then suspended at the desired concentration (in ppm) in acetone and purified water (50/50 mix by volume) containing 250 ppm of the surfactant Trem® 014 (polyhydric alcohol esters). The resulting test suspensions were then used in Tests A-G. Each test was conducted in triplicate, and the results were averaged. Spraying a 200 ppm test suspension to the point of run-off on the test plants was the equivalent of a rate of 800 g/ha. Unless otherwise indicated, the rating values indicate a 200 ppm test suspension was used. (An asterisk “*” next to the rating value indicates a 40 ppm test suspension was used.) The test suspension was sprayed to the point of run-off on wheat seedlings. The following day the seedlings were inoculated with a spore suspension of Septoria tritici (the causal agent of wheat leaf blotch) and incubated in saturated atmosphere at 24° C. for 48 h. and then the seedlings were moved to a growth chamber at 20° C. for 19 additional days, after which time visual disease ratings were made. Results for Tests A-G are given in Table A. In the Table, a rating of 100 indicates 100% disease control and a rating of 0 indicates no disease control (relative to the controls). A hyphen (-) indicates no test results.

The subject of assay [1] is Puccinia recondita f. sp. tritici. As to the kind of experiment: Test F: preventive spray on wheat seedlings, wheat leaf rust, visual disease rating. Conditions: 200 ppm test suspension, Puccinia recondita f. sp. tritici inoculated the day after spraying; for pest or weed control at 200 ppm: 168 h. How it is done: General protocol for preparing test suspensions for Tests A-G: the test compounds were first dissolved in acetone in an amount equal to 3% of the final volume and then suspended at the desired concentration (in ppm) in acetone and purified water (50/50 mix by volume) containing 250 ppm of the surfactant Trem® 014 (polyhydric alcohol esters). The resulting test suspensions were then used in Tests A-G. Each test was conducted in triplicate, and the results were averaged. Spraying a 200 ppm test suspension to the point of run-off on the test plants was the equivalent of a rate of 800 g/ha. Unless otherwise indicated, the rating values indicate a 200 ppm test suspension was used. (An asterisk “*” next to the rating value indicates a 40 ppm test suspension was used.) The test suspension was sprayed to the point of run-off on wheat seedlings. The following day the seedlings were inoculated with a spore suspension of Puccinia recondita f. sp. tritici (the causal agent of wheat leaf rust) and incubated in a saturated atmosphere at 20° C. for 24 h, and then moved to a growth chamber at 20° C. for 6 days, after which time visual disease ratings were made. Results for Tests A-G are given in Table A. In the Table, a rating of 100 indicates 100% disease control and a rating of 0 indicates no disease control (relative to the controls). A hyphen (-) indicates no test results.

Assay [2] deals with Blumeria graminis f. sp. tritici. As to the kind of experiment: Test G: preventive spray on wheat seedlings, wheat powdery mildew, visual disease rating.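 For all read-outs here: rated 8 days after spore dust inoculation at 20 °C.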 The settings on record: 200 ppm test suspension, Blumeria graminis f. sp. tritici inoculated the day after spraying; for pest or weed control at 200 ppm: 192 h. How it is done:
General protocol for preparing test suspensions for Tests A-G: the test compounds were first dissolved in acetone in an amount equal to 3% of the final volume and then suspended at the desired concentration (in ppm) in acetone and purified water (50/50 mix by volume) containing 250 ppm of the surfactant Trem® 014 (polyhydric alcohol esters). The resulting test suspensions were then used in Tests A-G. Each test was conducted in triplicate, and the results were averaged. Spraying a 200 ppm test suspension to the point of run-off on the test plants was the equivalent of a rate of 800 g/ha. Unless otherwise indicated, the rating values indicate a 200 ppm test suspension was used. (An asterisk “*” next to the rating value indicates a 40 ppm test suspension was used.) The test suspension was sprayed to the point of run-off on wheat seedlings. The following day the seedlings were inoculated with a spore dust of Blumeria graminis f. sp. tritici (also known as Erysiphe graminis f. sp. tritici, the causal agent of wheat powdery mildew) and incubated in a growth chamber at 20° C. for 8 days, after which time visual disease ratings were made. Results for Tests A-G are given in Table A. In the Table, a rating of 100 indicates 100% disease control and a rating of 0 indicates no disease control (relative to the controls). A hyphen (-) indicates no test results.

For the compound “4-(2-chloro-6-fluorophenyl)-N,1,3-trimethyl-α-(1-methylpropyl)-1H-pyrazole-5-methanamine [Compound 34]”, the “Test A rating (disease control)” value with Botrytis cinerea is 0%. Also, in the assay with Septoria nodorum, the “Test C rating (disease control)” value was determined as 99%. For the same compound, the “Test D rating (disease control)” value with Septoria tritici was 12%. In addition, in assay [1], the “Test F rating (disease control)” value stood at 90%. The “Test G rating (disease control)” value in assay [2] is 0%.

By pest or weed control is commonly meant how far the test organism was held down. As for `Cc1nn(C)c(OCC(C)C)c1-c1c(F)cc(F)cc1F` [Compound 22, 1,3-dimethyl-5-(2-methylpropoxy)-4-(2,4,6-trifluorophenyl)-1H-pyrazole], the pest or weed control at 200 ppm stood at 0% in the assay with Botrytis cinerea; 0% in the assay with Septoria nodorum; 0% with Septoria tritici; 17% in assay [1]; 0% in assay [2].

For the compound `CCC(C)COc1c(-c2ccc(F)cc2Br)c(C)nn1C` (centres unmarked) [Compound 23, 4-(2-bromo-4-fluorophenyl)-1,3-dimethyl-5-(2-methylbutoxy)-1H-pyrazole], the pest or weed control at 200 ppm in the assay with Botrytis cinerea is 70%; in the assay with Septoria nodorum it was 0%; in the assay on Septoria tritici, 95%; in assay [1], 9%; in assay [2] it was 0%.

Consider `Cc1nn(C)c(C(O)C(C)C)c1-c1c(F)cccc1Cl` (stereo not drawn) [Compound 24, 4-(2-chloro-6-fluorophenyl)-1,3-dimethyl-α-(1-methylethyl)-1H-pyrazole-5-methanol], for which the pest or weed control at 200 ppm with Botrytis cinerea was 99%; with Septoria nodorum it was 98%; in the assay with Septoria tritici, 91%; in assay [1], 99%; in assay [2] it was 97%.

For the compound `CNC(c1c(-c2c(F)cccc2Cl)c(C)nn1C)C(C)C` (stereo not drawn) [Compound 25, 4-(2-chloro-6-fluorophenyl)-N,1,3-trimethyl-α-(1-methylethyl)-1H-pyrazole-5-methanamine], the pest or weed control at 200 ppm with Botrytis cinerea amounted to 0%; in the assay on Septoria nodorum, 100%; in the assay with Septoria tritici it was 25%; in assay [1] it was 99%; in assay [2], 99%.

Turning to `CSC(c1c(-c2c(F)cccc2Cl)c(C)nn1C)C(C)C` (centres unmarked) [Compound 26, 4-(2-chloro-6-fluorophenyl)-1,3-dimethyl-5-[2-methyl-1-(methylthio)propyl]-1H-pyrazole], the pest or weed control at 200 ppm in the assay with Botrytis cinerea worked out at 0%; with Septoria nodorum, 99%; in the assay with Septoria tritici, 3%; in assay [1] it was 98%; in assay [2], 0%.

As to `Cc1nn(C)c(OCC2CC2)c1-c1ccc(F)cc1Cl` [Compound 27, 4-(2-chloro-4-fluorophenyl)-5-(cyclopropylmethoxy)-1,3-dimethyl-1H-pyrazole], the pest or weed control at 200 ppm in the assay on Botrytis cinerea is 99%; with Septoria nodorum, 69%; in the assay with Septoria tritici it was 100%; in assay [1] it was 9%; in assay [2] it was 0%.

As for `Cc1nn(C)c(OC2CCCCC2)c1-c1ccc(F)cc1Cl` [Compound 28, 4-(2-chloro-4-fluorophenyl)-5-(cyclohexyloxy)-1,3-dimethyl-1H-pyrazole], the pest or weed control at 200 ppm in the assay on Botrytis cinerea was found to be 95%; in the assay with Septoria nodorum, 0%; in the assay on Septoria tritici, 100%; in assay [1] it was 58%; in assay [2], 73%.

With `Cc1nn(C)c(OCC(C)C)c1-c1ccc(F)cc1Cl` [Compound 29], the “Test A rating (disease control)” value in the assay on Botrytis cinerea is 0%. In addition, the “Test C rating (disease control)” value in the assay with Septoria nodorum is listed as 100%. The “Test D rating (disease control)” value in the assay with Septoria tritici was determined as 63%. The “Test F rating (disease control)” value in assay [1] was 99%. Besides, the “Test G rating (disease control)” value in assay [2] was 0%.

As to `COCCOc1c(-c2ccc(F)cc2Cl)c(C)nn1C` [Compound 30, 4-(2-chloro-4-fluorophenyl)-5-(2-methoxyethoxy)-1,3-dimethyl-1H-pyrazole], the pest or weed control at 200 ppm in the assay on Botrytis cinerea was 91%; in the assay with Septoria nodorum it was 0%; in the assay on Septoria tritici it was 85%; in assay [1], 58%; in assay [2], 0%.

Regarding `CCC(C)C(SC)c1c(-c2c(F)cccc2Cl)c(C)nn1C` (centres unmarked) [Compound 35, 4-(2-chloro-6-fluorophenyl)-1,3-dimethyl-5-[2-methyl-1-(methylthio)butyl]-1H-pyrazole], the pest or weed control at 200 ppm with Botrytis cinerea is 0%; with Septoria nodorum, 0%; in assay [1], 0%; in assay [2] it was 69%.

`COCCN(CCOC)c1c(-c2c(F)cc(F)cc2F)c(C)nn1C` [Compound 51]: the “Test A rating (disease control)” value in the assay on Botrytis cinerea was 82%. In the assay with Septoria nodorum, the “Test C rating (disease control)” value is on record as 100%. Moreover, the “Test F rating (disease control)” value in assay [1] came to 99%. For the same compound, the “Test G rating (disease control)” value in assay [2] was 55%.

Turning to `Cc1nn(C)c(NCC(C)C)c1-c1c(F)cc(F)cc1F` [Compound 53], in the assay with Botrytis cinerea, the “Test A rating (disease control)” value amounted to 95%. Further, the “Test C rating (disease control)” value in the assay on Septoria nodorum is on record as 100%. The “Test F rating (disease control)” value in assay [1] was determined as 100%. For the same compound, in assay [2], the “Test G rating (disease control)” value was determined as 81%.
